In US10689398B2, “OXA-Diazaspiro compounds having activity against pain” (ESTEVE PHARMACEUTICALS, S.A., priority 2015, dated 2020):

Biological target: human σ1 receptor (Homo sapiens (Human), UniProt Q99720)
Assay: Human σ1 receptor radioligand assay
Format: binding
Settings: transfected HEK-293 membranes, [3H](+)-pentazocine radioligand
Experimental: Human σ1 Receptor Radioligand Assay
To investigate binding properties of test compounds to human σ1 receptor, transfected HEK-293 membranes and [^3H](+)-pentazocine (Perkin Elmer, NET-1056), as the radioligand, were used. The assay was carried out with 7 μg of membrane suspension, 5 nM of [^3H](+)-pentazocine in either absence or presence of either buffer or 10 μM Haloperidol for total and non-specific binding, respectively. Binding buffer contained Tris-HCl 50 mM at pH 8. Plates were incubated at 37° C. for 120 minutes. After the incubation period, the reaction mix was then transferred to MultiScreen HTS, FC plates (Millipore), filtered and plates were washed 3 times with ice-cold 10 mM Tris-HCL (pH7.4). Filters were dried and counted at approximately 40% efficiency in a MicroBeta scintillation counter (Perkin-Elmer) using EcoScint liquid scintillation cocktail

Chain of human σ1 receptor (Q99720 whole entry): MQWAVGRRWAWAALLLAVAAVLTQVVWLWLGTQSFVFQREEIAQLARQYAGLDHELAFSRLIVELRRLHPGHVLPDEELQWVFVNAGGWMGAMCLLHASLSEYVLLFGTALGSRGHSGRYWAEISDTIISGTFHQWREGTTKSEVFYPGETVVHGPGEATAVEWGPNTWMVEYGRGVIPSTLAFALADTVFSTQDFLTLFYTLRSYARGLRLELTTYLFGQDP

Row | Compound | Ki [nM]
1 | c1ccc(CCN2CCCC3(CC2)CN(c2ccccc2)CC2(CC2)O3)cc1 (stereo not shown) [Example 22, 8-phenethyl-13-phenyl-4-oxa-8,13-diazadispiro[2.1.6.3]tetradecane] | < 100
2 | c1ccc(CN2CCCC3(C2)CN(c2ccccc2)CC2(CC2)O3)cc1 (stereo not shown) [Example 23, 7-benzyl-12-phenyl-4-oxa-7,12-diazadispiro[2.1.5.3]tridecane] | < 500
3 | CC(C)CCN1CCCC2(C1)CN(C(=O)c1ccccc1)CC1(CC1)O2 (stereo not shown) [Example 25, (7-isopentyl-4-oxa-7,12-diazadispiro[2.1.5.3]tridecan-12-yl)(phenyl)methanone] | < 500
4 | CC(C)CCN1CCCC2(CC1)CN(C(=O)c1ccccc1)CC1(CC1)O2 (stereo not shown) [Example 28, (8-isopentyl-4-oxa-8,13-diazadispiro[2.1.6.3]tetradecan-13-yl)(phenyl)methanone] | < 100
5 | CC(C)CN1CCCC2(CC1)CN(C(=O)c1ccccc1)CC1(CC1)O2 (stereo not shown) [Example 29, (8-isobutyl-4-oxa-8,13-diazadispiro[2.1.6.3]tetradecan-13-yl)(phenyl)methanone] | < 500
6 | CCN1CC2(CCCN(CCc3ccccc3)CC2)OC(C)(C)C1=O (stereo not shown) [Example 30, 4-ethyl-2,2-dimethyl-9-phenethyl-1-oxa-4,9-diazaspiro[5.6]dodecan-3-one] | < 100
7 | CCN1CC2(CCCN(CCC(C)C)CC2)OC(C)(C)C1=O (stereo not shown) [Example 31, 4-ethyl-9-isopentyl-2,2-dimethyl-1-oxa-4,9-diazaspiro[5.6]dodecan-3-one] | < 500
8 | O=C1N(Cc2ccccc2)CC2(CN(CCc3ccccc3)C2)OC12CC2 [Example 33, 10-benzyl-7-phenethyl-4-oxa-7,10-diazadispiro[2.1.3.3]undecan-11-one] | < 100
9 | CC1(C)CN(C(=O)c2ccccc2)CC2(CCCN(CCc3ccccc3)CC2)O1 (stereo not shown) [Example 34, (2,2-dimethyl-9-phenethyl-1-oxa-4,9-diazaspiro[5.6]dodecan-4-yl)(phenyl)methanone] | < 100
10 | CCN1CC2(CN(CCOC(C)C)C2)OC2(CC2)C1=O [Example 35, 10-ethyl-7-(2-isopropoxyethyl)-4-oxa-7,10-diazadispiro[2.1.3.3]undecan-11-one] | ≥ 500
11 | CCN1CC2(CN(CCC(C)C)C2)O[C@H](C)C1=O [Example 36, (R)-8-ethyl-2-isopentyl-6-methyl-5-oxa-2,8-diazaspiro[3.5]nonan-7-one] | ≥ 500
12 | CCN1CC2(CN(CCC(C)C)C2)O[C@@H](C)C1=O [Example 37, (S)-8-ethyl-2-isopentyl-6-methyl-5-oxa-2,8-diazaspiro[3.5]nonan-7-one] | ≥ 500
13 | CCN1CC2(CN(CC(C)C)C2)O[C@H](C)C1=O [Example 38, (R)-8-ethyl-2-isobutyl-6-methyl-5-oxa-2,8-diazaspiro[3.5]nonan-7-one] | ≥ 500
14 | CCN1CC2(CN(CC(C)C)C2)O[C@@H](C)C1=O [Example 39, (S)-8-ethyl-2-isobutyl-6-methyl-5-oxa-2,8-diazaspiro[3.5]nonan-7-one] | ≥ 500
15 | CC(C)CCN1CC2(C1)CN(C(C)C)C(=O)[C@@H](C)O2 [Example 40, (R)-2-isopentyl-8-isopropyl-6-methyl-5-oxa-2,8-diazaspiro[3.5]nonan-7-one] | ≥ 500
16 | CC(C)CN1CC2(C1)CN(C(C)C)C(=O)[C@@H](C)O2 [Example 42, (R)-2-isobutyl-8-isopropyl-6-methyl-5-oxa-2,8-diazaspiro[3.5]nonan-7-one] | ≥ 500
17 | CC(C)CN1CC2(C1)CN(C(C)C)C(=O)[C@H](C)O2 [Example 43, (S)-2-isobutyl-8-isopropyl-6-methyl-5-oxa-2,8-diazaspiro[3.5]nonan-7-one] | ≥ 500
18 | CCN1C[C@@]2(CCCN(CCC(C)C)CC2)O[C@H](C)C1=O [Example 46, (2R,6S)-4-ethyl-9-isopentyl-2-methyl-1-oxa-4,9-diazaspiro[5.6]dodecan-3-one] | ≥ 500
19 | O=C(c1ccccc1)N1CC2(CCCN(Cc3ccccc3)CC2)OC2(CC2)C1 (stereo not shown) [Example 56, (8-benzyl-4-oxa-8,13-diazadispiro[2.1.6.3]tetradecan-13-yl)(phenyl)methanone] | < 100
20 | CCN1CC2(CCCN(Cc3ccccc3)CC2)OC(C)(C)C1=O (stereo not shown) [Example 57, 9-benzyl-4-ethyl-2,2-dimethyl-1-oxa-4,9-diazaspiro[5.6]dodecan-3-one] | < 100
21 | CCN1CC2(CCCN(Cc3ccc(C#N)cc3)CC2)OC(C)(C)C1=O (stereo not shown) [Example 58, 4-((4-ethyl-2,2-dimethyl-3-oxo-1-oxa-4,9-diazaspiro[5.6]dodecan-9-yl)methyl)benzonitrile] | ≥ 500
22 | CCN1C[C@@]2(CCCN(Cc3ccc(F)cc3)CC2)O[C@H](C)C1=O [Example 63, (2R,6S)-4-ethyl-9-(4-fluorobenzyl)-2-methyl-1-oxa-4,9-diazaspiro[5.6]dodecan-3-one] | ≥ 500
23 | CCN1C[C@]2(CCCN(Cc3ccc(F)cc3)CC2)O[C@H](C)C1=O [Example 64, (2R,6R)-4-ethyl-9-(4-fluorobenzyl)-2-methyl-1-oxa-4,9-diazaspiro[5.6]dodecan-3-one] | ≥ 500
24 | CCN1C[C@@]2(CCCN(Cc3ccc(F)cc3)CC2)O[C@@H](C)C1=O [Example 65, (2S,6S)-4-ethyl-9-(4-fluorobenzyl)-2-methyl-1-oxa-4,9-diazaspiro[5.6]dodecan-3-one] | ≥ 500
25 | CCN1C[C@]2(CCCN(Cc3ccc(F)cc3)CC2)O[C@@H](C)C1=O [Example 66, (2S,6R)-4-ethyl-9-(4-fluorobenzyl)-2-methyl-1-oxa-4,9-diazaspiro[5.6]dodecan-3-one] | ≥ 500

The next lines start with the values.

Row | Ki [nM] | Compound
26 | ≥ 500 | O=C(c1ccccc1)N1CC2(CC2)OC2(CCCN(CCc3ccccc3)C2)C1 (stereo not shown) [Example 24, (7-phenethyl-4-oxa-7,12-diazadispiro[2.1.5.3]tridecan-12-yl)(phenyl)methanone]
27 | ≥ 500 | CC(C)CN1CCCC2(C1)CN(C(=O)c1ccccc1)CC1(CC1)O2 (stereo not shown) [Example 26, (7-isobutyl-4-oxa-7,12-diazadispiro[2.1.5.3]tridecan-12-yl)(phenyl)methanone]
28 | < 100 | O=C(c1ccccc1)N1CC2(CCCN(CCc3ccccc3)CC2)OC2(CC2)C1 (stereo not shown) [Example 27, (8-phenethyl-4-oxa-8,13-diazadispiro[2.1.6.3]tetradecan-13-yl)(phenyl)methanone]
29 | < 500 | CCN1CC2(CCCN(CC(C)C)CC2)OC(C)(C)C1=O (stereo not shown) [Example 32, 4-ethyl-9-isobutyl-2,2-dimethyl-1-oxa-4,9-diazaspiro[5.6]dodecan-3-one]
30 | ≥ 500 | CC(C)CCN1CC2(C1)CN(C(C)C)C(=O)[C@H](C)O2 [Example 41, (S)-2-isopentyl-8-isopropyl-6-methyl-5-oxa-2,8-diazaspiro[3.5]nonan-7-one]
31 | ≥ 500 | CC(C)N1CC2(CN(CCC(C)(C)C)C2)O[C@@H](C)C1=O [Example 44, (S)-2-(3,3-dimethylbutyl)-8-isopropyl-6-methyl-5-oxa-2,8-diazaspiro[3.5]nonan-7-one]
32 | ≥ 500 | CC(C)N1CC2(CN(CCC(C)(C)C)C2)O[C@H](C)C1=O [Example 45, (R)-2-(3,3-dimethylbutyl)-8-isopropyl-6-methyl-5-oxa-2,8-diazaspiro[3.5]nonan-7-one]
33 | ≥ 500 | CCN1C[C@]2(CCCN(CCC(C)C)CC2)O[C@H](C)C1=O [Example 47, (2R,6R)-4-ethyl-9-isopentyl-2-methyl-1-oxa-4,9-diazaspiro[5.6]dodecan-3-one]
34 | ≥ 500 | CCN1C[C@@]2(CCCN(CCC(C)C)CC2)O[C@@H](C)C1=O [Example 48, (2S,6S)-4-ethyl-9-isopentyl-2-methyl-1-oxa-4,9-diazaspiro[5.6]dodecan-3-one]
35 | ≥ 500 | CCN1C[C@]2(CCCN(CCC(C)C)CC2)O[C@@H](C)C1=O [Example 49, (2S,6R)-4-ethyl-9-isopentyl-2-methyl-1-oxa-4,9-diazaspiro[5.6]dodecan-3-one]
36 | ≥ 500 | CC(C)OCCN1CCCC2(CC1)CN(C(=O)c1ccccc1)CC(C)(C)O2 (stereo not shown) [Example 50, (9-(2-isopropoxyethyl)-2,2-dimethyl-1-oxa-4,9-diazaspiro[5.6]dodecan-4-yl)(phenyl)methanone]
37 | ≥ 500 | O=C(c1ccccc1)N1CC2(CC2)OC2(CCCN(Cc3ccccc3)C2)C1 (stereo not shown) [Example 55, (7-benzyl-4-oxa-7,12-diazadispiro[2.1.5.3]tridecan-12-yl)(phenyl)methanone]
38 | ≥ 500 | CCN1C[C@@]2(CCCN(Cc3ccccc3)CC2)O[C@H](C)C1=O [Example 59, (2R,6S)-9-benzyl-4-ethyl-2-methyl-1-oxa-4,9-diazaspiro[5.6]dodecan-3-one]
39 | ≥ 500 | CCN1C[C@]2(CCCN(Cc3ccccc3)CC2)O[C@H](C)C1=O [Example 60, (2R,6R)-9-benzyl-4-ethyl-2-methyl-1-oxa-4,9-diazaspiro[5.6]dodecan-3-one]
40 | ≥ 500 | CCN1C[C@@]2(CCCN(Cc3ccccc3)CC2)O[C@@H](C)C1=O [Example 61, (2S,6S)-9-benzyl-4-ethyl-2-methyl-1-oxa-4,9-diazaspiro[5.6]dodecan-3-one]
41 | ≥ 500 | CCN1C[C@]2(CCCN(Cc3ccccc3)CC2)O[C@@H](C)C1=O [Example 62, (2S,6R)-9-benzyl-4-ethyl-2-methyl-1-oxa-4,9-diazaspiro[5.6]dodecan-3-one]
42 | ≥ 500 | CCN1C[C@@]2(CCCN(Cc3ccc(C#N)cc3)CC2)O[C@H](C)C1=O [Example 67, 4-(((2R,6S)-4-ethyl-2-methyl-3-oxo-1-oxa-4,9-diazaspiro[5.6]dodecan-9-yl)methyl)benzonitrile]
43 | ≥ 500 | CCN1C[C@]2(CCCN(Cc3ccc(C#N)cc3)CC2)O[C@H](C)C1=O [Example 68, 4-(((2R,6R)-4-ethyl-2-methyl-3-oxo-1-oxa-4,9-diazaspiro[5.6]dodecan-9-yl)methyl)benzonitrile]
